Source: patent US12421208B2, “Chemical compounds” (ASTRAZENECA AB, priority 2020, dated 2025)

Assays:
hERG = hERG (Homo sapiens, UniProt Q12809); test: hERG inhibition
Excerpt: It is well known that blockade of the cardiac ion channel coded by human ether-n-gogo-related gene (hERG) is a risk factor in drug discovery and development. Blockage of hERG can cause safety problems such as cardiac arrhythmia. Advantageously, the compounds of Formula I have low hERG activity.

BRCA2 (−/−) DLD1 cells = test: PARP proliferation assay (7 day compound dosing), BRCA2 (−/−) DLD1; assay type: cell-based; settings: Homo sapiens, DLD-1, 168 h, BRCA2 −/− DLD-1 cells, 7 day dosing; read-out: BRCA2 −/− DLD-1 prolif. 7 d IC50
Description: (§1) PARP Proliferation Assay (7 Day Compound Dosing)
(§2) DLD1 and BRCA2 (−/−) DLD1 cells were harvested to a density of 5000 cells/ml and 2.5E4 cells/ml respectively in complete media, 40 μL/well seeded into 384-well plates (Greiner, Kremsmunster, Austria; 781090) using a Multidrop Combi then incubated at 37° C., 5% CO2 overnight. Next day (Day 1) using a Multidrop Combi add sytoxgreen (5 ul, 2 uM) and saponin (10 ul, 0.25% stock) to a day 0 plate, seal the plate using a black adhesive lid and incubate for >3 h at rt. Cells were imaged using Cell Insight (Thermo Fisher) fitted with a 4× objective. Test compounds are added using an Echo 555 and placed in incubator maintained at 37° C., 5% CO2 and incubated for 7 days. On Day 8 add sytox green (5 ul, 2 uM) and then saponin (10 ul, 0.25% stock) to plates, seal the plate using a black adhesive lid and incubate for >3 h at rt. Read all cells on the Cell Insight with 4× Objective. The rate of proliferation is determined in Genedata by assessing the total cell number output from the Cell Insight for Day 0 and Day 8 plates.

DLD1 cells = test: PARP proliferation assay (7 day compound dosing), WT DLD1; assay type: cell-based; settings: Homo sapiens, 168 h; WT DLD-1 cells, 7 day dosing; read-out: WT DLD-1 prolif. 7 d IC50
Description: as §1, §2

Sequence of hERG (Q12809 whole entry): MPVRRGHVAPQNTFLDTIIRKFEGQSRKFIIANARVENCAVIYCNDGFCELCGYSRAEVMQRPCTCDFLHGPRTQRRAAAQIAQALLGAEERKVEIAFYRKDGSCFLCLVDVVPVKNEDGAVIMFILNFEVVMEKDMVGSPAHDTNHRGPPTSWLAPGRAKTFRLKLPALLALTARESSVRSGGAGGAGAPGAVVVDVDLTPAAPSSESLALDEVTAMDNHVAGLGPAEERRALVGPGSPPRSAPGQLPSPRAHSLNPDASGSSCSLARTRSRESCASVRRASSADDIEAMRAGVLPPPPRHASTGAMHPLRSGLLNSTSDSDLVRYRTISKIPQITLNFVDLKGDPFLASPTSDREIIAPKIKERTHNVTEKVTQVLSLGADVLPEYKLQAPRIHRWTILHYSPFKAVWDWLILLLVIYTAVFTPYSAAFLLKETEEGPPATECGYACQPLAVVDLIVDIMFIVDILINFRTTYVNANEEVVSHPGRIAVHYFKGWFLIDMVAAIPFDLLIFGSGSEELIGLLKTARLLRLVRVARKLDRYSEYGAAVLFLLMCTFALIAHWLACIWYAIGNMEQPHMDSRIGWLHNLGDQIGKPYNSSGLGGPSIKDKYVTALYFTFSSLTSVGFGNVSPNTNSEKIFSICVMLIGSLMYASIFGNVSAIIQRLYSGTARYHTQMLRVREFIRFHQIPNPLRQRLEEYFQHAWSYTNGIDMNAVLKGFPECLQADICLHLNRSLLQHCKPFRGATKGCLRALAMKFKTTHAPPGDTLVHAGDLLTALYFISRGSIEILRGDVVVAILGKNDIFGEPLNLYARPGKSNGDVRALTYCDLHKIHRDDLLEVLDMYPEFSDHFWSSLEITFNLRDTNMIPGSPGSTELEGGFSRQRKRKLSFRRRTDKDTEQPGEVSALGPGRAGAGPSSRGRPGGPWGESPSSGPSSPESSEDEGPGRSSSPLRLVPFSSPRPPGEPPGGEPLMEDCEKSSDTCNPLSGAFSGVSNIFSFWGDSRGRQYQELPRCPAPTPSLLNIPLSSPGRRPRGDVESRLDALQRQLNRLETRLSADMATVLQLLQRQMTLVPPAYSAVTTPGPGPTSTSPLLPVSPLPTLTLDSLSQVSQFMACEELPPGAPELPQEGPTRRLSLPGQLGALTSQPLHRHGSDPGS

| SMILES | IC50 (BRCA2 (−/−) DLD1 cells) [nM] | IC50 (DLD1 cells) [nM] | IC50 (hERG) [nM] |
| --- | --- | --- | --- |
| CNC(=O)c1ccc(N2CCN(Cc3ccc4nc(C)c(=O)[nH]c4c3C)CC2)cn1 [Example 2, 5-[4-[(2,5-dimethyl-3-oxo-4H-quinoxalin-6-yl)methyl]piperazin-1-yl]-N-methyl-pyridine-2-carboxamide] | 734 |  | > 40000 |
| CNC(=O)c1ccc(N2CCN(Cc3ccc4nc(C)c(=O)[nH]c4c3C)CC2)c(C)n1 [Example 4, 5-[4-[(2,5-dimethyl-3-oxo-4H-quinoxalin-6-yl)methyl]piperazin-1-yl]-N,6-dimethyl-pyridine-2-carboxamide] | 81 | > 14000 | > 40000 |
| Cc1nc2ccc(CN3CCN(c4ccc(C(N)=O)nc4F)CC3)c(C)c2[nH]c1=O [Example 5, 5-[4-[(2,5-dimethyl-3-oxo-4H-quinoxalin-6-yl)methyl]piperazin-1-yl]-6-fluoro-pyridine-2-carboxamide] | 2890 |  |  |
| Cc1nc(C(N)=O)ccc1N1CCN(Cc2ccc3nc(C)c(=O)[nH]c3c2C)CC1 [Example 7, 5-[4-[(2,5-dimethyl-3-oxo-4H-quinoxalin-6-yl)methyl]piperazin-1-yl]-6-methyl-pyridine-2-carboxamide] | 8430 | > 30000 |  |
| CNC(=O)c1ccc(N2CCN(Cc3ccc4nc(C)c(=O)[nH]c4c3F)CC2)c(C(F)F)n1 [Example 21, 6-(difluoromethyl)-5-[4-[(5-fluoro-2-methyl-3-oxo-4H-quinoxalin-6-yl)methyl]piperazin-1-yl]-N-methyl-pyridine-2-carboxamide] | 1420 |  | > 40000 |
| CCc1nc2ccc(CN3CCN(c4ccc(C(N)=O)nc4)CC3)c(F)c2[nH]c1=O [Example 25, 5-[4-[(2-ethyl-5-fluoro-3-oxo-4H-quinoxalin-6-yl)methyl]piperazin-1-yl]pyridine-2-carboxamide] | 297 |  |  |
| CNC(=O)c1ccc(N2CCN(Cc3ccc4nc(C)c(=O)[nH]c4c3F)CC2)c(C)n1 [Example 31, 5-[4-[(5-fluoro-2-methyl-3-oxo-4H-quinoxalin-6-yl)methyl]piperazin-1-yl]-N,6-dimethyl-pyridine-2-carboxamide] |  | > 30000 | > 40000 |
| CNC(=O)c1ccc(N2CCN(Cc3ccc4ncc(=O)[nH]c4c3F)CC2)cn1 [Example 33, 5-[4-[(5-fluoro-3-oxo-4H-quinoxalin-6-yl)methyl]piperazin-1-yl]-N-methyl-pyridine-2-carboxamide] | > 30000 |  |  |
| CNC(=O)c1ccc(N2CCN(Cc3ccc4ncc(=O)[nH]c4c3F)CC2)c(Cl)n1 [Example 34, 6-chloro-5-[4-[(5-fluoro-3-oxo-4H-quinoxalin-6-yl)methyl]piperazin-1-yl]-N-methyl-pyridine-2-carboxamide] | 8440 |  |  |
| CNC(=O)c1ccc(N2CCN(Cc3ccc4ncc(=O)[nH]c4c3F)CC2)c(C)n1 [Example 35, 5-[4-[(5-fluoro-3-oxo-4H-quinoxalin-6-yl)methyl]piperazin-1-yl]-N,6-dimethyl-pyridine-2-carboxamide] | 10300 | > 30000 |  |
| CNC(=O)c1ccc(N2CCN(Cc3ccc4ncc(=O)[nH]c4c3F)CC2)c(F)n1 [Example 36, 6-fluoro-5-[4-[(5-fluoro-3-oxo-4H-quinoxalin-6-yl)methyl]piperazin-1-yl]-N-methyl-pyridine-2-carboxamide] | 16200 |  |  |
| CNC(=O)c1ccc(N2CCN(Cc3ccc4nc(OC)c(=O)[nH]c4c3F)CC2)cn1 [Example 38, 5-[4-[(5-fluoro-2-methoxy-3-oxo-4H-quinoxalin-6-yl)methyl]piperazin-1-yl]-N-methyl-pyridine-2-carboxamide] | 547 |  | > 40000 |
| CCc1nc2ccc(CN3CCN(c4ccc(C(=O)NC)nc4)CC3)c(C)c2[nH]c1=O [Example 44, 5-[4-[(2-ethyl-5-methyl-3-oxo-4H-quinoxalin-6-yl)methyl]piperazin-1-yl]-N-methyl-pyridine-2-carboxamide] | > 30000 |  |  |
| CNC(=O)c1ccc(N2CCN(Cc3ccc4nc(C(F)(F)F)c(=O)[nH]c4c3F)CC2)c(C)n1 [Example 47, 5-[4-[[5-fluoro-3-oxo-2-(trifluoromethyl)-4H-quinoxalin-6-yl]methyl]piperazin-1-yl]-N,6-dimethyl-pyridine-2-carboxamide] | 58 |  | > 40000 |
| CNC(=O)c1ccc(N2CCN(Cc3ccc4nc(C(F)(F)F)c(=O)[nH]c4c3F)CC2)c(Cl)n1 [Example 49, 6-chloro-5-[4-[[5-fluoro-3-oxo-2-(trifluoromethyl)-4H-quinoxalin-6-yl]methyl]piperazin-1-yl]-N-methyl-pyridine-2-carboxamide] | 41 |  | > 40000 |
| CNC(=O)c1ccc(N2CCN(Cc3ccc4nc(C(F)(F)F)c(=O)[nH]c4c3F)CC2)cn1 [Example 50, 5-[4-[[5-fluoro-3-oxo-2-(trifluoromethyl)-4H-quinoxalin-6-yl]methyl]piperazin-1-yl]-N-methyl-pyridine-2-carboxamide] | 136 |  | > 40000 |

Continued by falling IC50 (BRCA2 (−/−) DLD1 cells), values first:

| IC50 (BRCA2 (−/−) DLD1 cells) [nM] | IC50 (DLD1 cells) [nM] | SMILES | IC50 (hERG) [nM] |
| --- | --- | --- | --- |
| 14 | 24000 | CNC(=O)c1ccc(N2CCN(Cc3ccc4nc(C)c(=O)[nH]c4c3C)CC2)c(F)n1 [Example 1, 5-[4-[(2,5-dimethyl-3-oxo-4H-quinoxalin-6-yl)methyl]piperazin-1-yl]-6-fluoro-N-methyl-pyridine-2-carboxamide] | > 40000 |
| 13 |  | CCNC(=O)c1ccc(N2CCN(Cc3ccc4nc(C)c(=O)[nH]c4c3F)CC2)c(C)n1 [Example 46, N-ethyl-5-[4-[(5-fluoro-2-methyl-3-oxo-4H-quinoxalin-6-yl)methyl]piperazin-1-yl]-6-methyl-pyridine-2-carboxamide] |  |
| 10 |  | CNC(=O)c1ccc(N2CCN(Cc3ccc4nc(C(F)F)c(=O)[nH]c4c3F)CC2)c(C)n1 [Example 37, 5-[4-[[2-(difluoromethyl)-5-fluoro-3-oxo-4H-quinoxalin-6-yl]methyl]piperazin-1-yl]-N,6-dimethyl-pyridine-2-carboxamide] |  |
| 10 |  | CCc1nc2ccc(CN3CCN(c4ccc(C(=O)NC)nc4F)CC3)c(C)c2[nH]c1=O [Example 43, 5-[4-[(2-ethyl-5-methyl-3-oxo-4H-quinoxalin-6-yl)methyl]piperazin-1-yl]-6-fluoro-N-methyl-pyridine-2-carboxamide] |  |
| 8 | 25000 | CNC(=O)c1ccc(N2CCN(Cc3ccc4nc(C)c(=O)[nH]c4c3C)CC2)c(Cl)n1 [Example 3, 6-chloro-5-[4-[(2,5-dimethyl-3-oxo-4H-quinoxalin-6-yl)methyl]piperazin-1-yl]-N-methyl-pyridine-2-carboxamide] | > 40000 |
| 8 |  | CNC(=O)c1ccc(N2CCN(Cc3ccc4nc(OC)c(=O)[nH]c4c3F)CC2)c(F)n1 [Example 39, 6-fluoro-5-[4-[(5-fluoro-2-methoxy-3-oxo-4H-quinoxalin-6-yl)methyl]piperazin-1-yl]-N-methyl-pyridine-2-carboxamide] | > 40000 |
| 7 |  | CNC(=O)c1ccc(N2CCN(Cc3ccc4nc(OC)c(=O)[nH]c4c3F)CC2)c(C)n1 [Example 40, 5-[4-[(5-fluoro-2-methoxy-3-oxo-4H-quinoxalin-6-yl)methyl]piperazin-1-yl]-N,6-dimethyl-pyridine-2-carboxamide] | > 40000 |
| 7 |  | CNC(=O)c1ccc(N2CCN(Cc3ccc4nc(OC)c(=O)[nH]c4c3F)CC2)c(Cl)n1 [Example 41, 6-chloro-5-[4-[(5-fluoro-2-methoxy-3-oxo-4H-quinoxalin-6-yl)methyl]piperazin-1-yl]-N-methyl-pyridine-2-carboxamide] | > 40000 |
| 6 |  | CNC(=O)c1ccc(N2CCN(Cc3ccc4nc(C(C)(F)F)c(=O)[nH]c4c3F)CC2)c(C)n1 [Example 19, 5-[4-[[2-(1,1-difluoroethyl)-5-fluoro-3-oxo-4H-quinoxalin-6-yl]methyl]piperazin-1-yl]-N,6-dimethyl-pyridine-2-carboxamide] | > 40000 |
| 6 |  | CCc1nc2ccc(CN3CCN(c4ccc(C(=O)NC)nc4C)CC3)c(C)c2[nH]c1=O [Example 42, 5-[4-[(2-ethyl-5-methyl-3-oxo-4H-quinoxalin-6-yl)methyl]piperazin-1-yl]-N,6-dimethyl-pyridine-2-carboxamide] |  |
| 6 |  | CCNC(=O)c1ccc(N2CCN(Cc3ccc4nc(C)c(=O)[nH]c4c3F)CC2)c(F)n1 [Example 45, N-ethyl-6-fluoro-5-[4-[(5-fluoro-2-methyl-3-oxo-4H-quinoxalin-6-yl)methyl]piperazin-1-yl]pyridine-2-carboxamide] |  |
| 4 |  | CCc1nc2ccc(CN3CCN(c4ccc(C(=O)NC)nc4Cl)CC3)c(F)c2[nH]c1=O [Example 28, 6-chloro-5-[4-[(2-ethyl-5-fluoro-3-oxo-4H-quinoxalin-6-yl)methyl]piperazin-1-yl]-N-methyl-pyridine-2-carboxamide] | > 38000 |
